According to the supplement of paper PMC10307832:

Tests used:
Test in all cases: relative viability (nuclei count vs DMSO), 5 days (fraction); higher = more cells survive
[1] = system: NCI-H596
Procedure, shortened: (§1)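 After 5 days of treatment, lung cancer cells in 1536-well plates were fixed and stained in a single step (final 0.05% Triton X-100, 1% formaldehyde, 1 ug/ml Hoechst) and their nuclei counted on 4× images. Treatment had been applied by pin tool the day after seeding as one drug alone or as a fixed anchor-drug dose with five library-drug doses (not always all listed) in √10 steps. Relative viability is the nuclei count of treated wells divided by that of vehicle wells, and values are medians of duplicate plates.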

[2] = system: H3255
Procedure, shortened: as §1

[3] = system: EKVX
Procedure, shortened: as §1

[4] = system: NCI-H1755
Procedure, shortened: as §1

[5] = system: LK-2
Procedure, shortened: as §1

[6] = system: NCI-H1792
Procedure, shortened: as §1

[7] = system: HCC-366
Procedure, shortened: as §1

[8] = system: NCI-H1944
Procedure, shortened: as §1

[9] = system: NCI-H1734
Procedure, shortened: as §1

[10] = system: PC-3 [JPC-3]
Procedure, shortened: as §1

[11] = system: NCI-H1975
Procedure, shortened: as §1

[12] = system: NCI-H2170
Procedure, shortened: as §1

[13] = system: NCI-H1666
Procedure, shortened: as §1

[14] = system: NCI-H1563
Procedure, shortened: as §1

[15] = system: NCI-H520
Procedure, shortened: as §1

[16] = system: NCI-H23
Procedure, shortened: as §1

[17] = system: ChaGo-K-1
Procedure, shortened: as §1

[18] = system: COR-L 105
Procedure, shortened: as §1

[19] = system: A-427
Procedure, shortened: as §1

[20] = system: SK-MES-1
Procedure, shortened: as §1

[21] = system: NCI-H441
Procedure, shortened: as §1

[22] = system: LOU-NH91
Procedure, shortened: as §1

[23] = system: EMC-BAC-2
Procedure, shortened: as §1

## CC(C)Oc1cc(Nc2nc(N[C@@H](C)c3ccc(F)cn3)ncc2Cl)n[nH]1 [AZ23] + C[C@@H](Oc1cc(-c2cnn(C3CCNCC3)c2)cnc1N)c1c(Cl)ccc(F)c1Cl [Crizotinib] (partner 1 µM)
[1]; first compound 0.01 µM
  relative viability: 0.97
[1]; first compound 0.03162 µM
  relative viability: 1.05
[1]; first compound 0.3162 µM
  relative viability: 0.896
[2]; first compound 0.01 µM
  relative viability: 0.981
[2]; first compound 0.03162 µM
  relative viability: 1.18
[2]; first compound 0.3162 µM
  relative viability: 1.01
[3]; first compound 0.01 µM
  relative viability: 1.05
[3]; first compound 0.03162 µM
  relative viability: 1.03
[3]; first compound 0.3162 µM
  relative viability: 1.03
[4]; first compound 0.01 µM
  relative viability: 1.1
[4]; first compound 0.03162 µM
  relative viability: 1.01
[4]; first compound 0.3162 µM
  relative viability: 0.964
[5]; first compound 0.03162 µM
  relative viability: 0.223
[5]; first compound 0.3162 µM
  relative viability: 0.216
[6]; first compound 0.01 µM
  relative viability: 1.47
[6]; first compound 0.03162 µM
  relative viability: 1.27
[6]; first compound 0.3162 µM
  relative viability: 1.01
[7]; first compound 0.01 µM
  relative viability: 0.688
[7]; first compound 0.03162 µM
  relative viability: 1.05
[7]; first compound 0.3162 µM
  relative viability: 0.587
[8]; first compound 0.01 µM
  relative viability: 1.11
[8]; first compound 0.03162 µM
  relative viability: 1.18
[8]; first compound 0.3162 µM
  relative viability: 1.17
[9]; first compound 0.01 µM
  relative viability: 0.713
[9]; first compound 0.03162 µM
  relative viability: 0.782
[9]; first compound 0.3162 µM
  relative viability: 0.76
[10]; first compound 0.01 µM
  relative viability: 1.3
[10]; first compound 0.03162 µM
  relative viability: 1.07
[10]; first compound 0.3162 µM
  relative viability: 0.91
[11]; first compound 0.01 µM
  relative viability: 1.44
[11]; first compound 0.03162 µM
  relative viability: 0.953
[11]; first compound 0.3162 µM
  relative viability: 1.09
[12]; first compound 0.01 µM
  relative viability: 1.67
[12]; first compound 0.03162 µM
  relative viability: 1.45
[12]; first compound 0.3162 µM
  relative viability: 1.42
[13]; first compound 0.01 µM
  relative viability: 1.03
[13]; first compound 0.03162 µM
  relative viability: 0.978
[13]; first compound 0.3162 µM
  relative viability: 1.02
[14]; first compound 0.01 µM
  relative viability: 0.837
[14]; first compound 0.03162 µM
  relative viability: 0.912
[14]; first compound 0.3162 µM
  relative viability: 0.865
[15]; first compound 0.01 µM
  relative viability: 0.869
[15]; first compound 0.03162 µM
  relative viability: 0.864
[15]; first compound 0.3162 µM
  relative viability: 0.732
[16]; first compound 0.03162 µM
  relative viability: 0.617
[16]; first compound 0.3162 µM
  relative viability: 0.539
[17]; first compound 0.01 µM
  relative viability: 1.37
[17]; first compound 0.03162 µM
  relative viability: 1.08
[17]; first compound 0.3162 µM
  relative viability: 1.24
[18]; first compound 0.01 µM
  relative viability: 0.618
[18]; first compound 0.03162 µM
  relative viability: 0.825
[18]; first compound 0.3162 µM
  relative viability: 0.786
[19]; first compound 0.01 µM
  relative viability: 0.942
[19]; first compound 0.03162 µM
  relative viability: 0.951
[19]; first compound 0.3162 µM
  relative viability: 0.754
[20]; first compound 0.01 µM
  relative viability: 1.02
[20]; first compound 0.03162 µM
  relative viability: 1.14
[20]; first compound 0.3162 µM
  relative viability: 0.938
[21]; first compound 0.01 µM
  relative viability: 1.15
[21]; first compound 0.03162 µM
  relative viability: 0.914
[21]; first compound 0.3162 µM
  relative viability: 0.774
[22]; first compound 0.01 µM
  relative viability: 0.719
[22]; first compound 0.03162 µM
  relative viability: 0.727
[22]; first compound 0.3162 µM
  relative viability: 0.771
[23]; first compound 0.01 µM
  relative viability: 0.804
[23]; first compound 0.03162 µM
  relative viability: 0.817
[23]; first compound 0.3162 µM
  relative viability: 0.777

## Clc1ccc(Nc2nnc(Cc3ccncc3)c3ccccc23)cc1 [Vatalanib] + C[C@@H](Oc1cc(-c2cnn(C3CCNCC3)c2)cnc1N)c1c(Cl)ccc(F)c1Cl [Crizotinib] (partner 1 µM)
[1]; first compound 0.04 µM
  relative viability: 1.05
[1]; first compound 0.1265 µM
  relative viability: 1.02
[1]; first compound 0.4 µM
  relative viability: 0.884
[1]; first compound 1.265 µM
  relative viability: 0.955
[1]; first compound 4 µM
  relative viability: 1.16
[2]; first compound 0.04 µM
  relative viability: 0.986
[2]; first compound 0.1265 µM
  relative viability: 0.878
[2]; first compound 0.4 µM
  relative viability: 0.718
[2]; first compound 1.265 µM
  relative viability: 0.802
[2]; first compound 4 µM
  relative viability: 0.85
[3]; first compound 0.04 µM
  relative viability: 0.993
[3]; first compound 0.1265 µM
  relative viability: 0.9
[3]; first compound 0.4 µM
  relative viability: 1.11
[3]; first compound 1.265 µM
  relative viability: 1.02
[3]; first compound 4 µM
  relative viability: 0.921
[4]; first compound 0.04 µM
  relative viability: 0.886
[4]; first compound 0.1265 µM
  relative viability: 0.821
[4]; first compound 0.4 µM
  relative viability: 0.942
[4]; first compound 1.265 µM
  relative viability: 0.802
[4]; first compound 4 µM
  relative viability: 0.773
[5]; first compound 0.04 µM
  relative viability: 0.243
[5]; first compound 0.1265 µM
  relative viability: 0.232
[5]; first compound 1.265 µM
  relative viability: 0.252
[5]; first compound 4 µM
  relative viability: 0.233
[6]; first compound 0.04 µM
  relative viability: 0.945
[6]; first compound 0.1265 µM
  relative viability: 0.972
[6]; first compound 0.4 µM
  relative viability: 0.921
[6]; first compound 1.265 µM
  relative viability: 0.912
[6]; first compound 4 µM
  relative viability: 0.98
[7]; first compound 0.04 µM
  relative viability: 0.545
[7]; first compound 0.1265 µM
  relative viability: 0.383
[7]; first compound 0.4 µM
  relative viability: 0.592
[7]; first compound 1.265 µM
  relative viability: 0.487
[7]; first compound 4 µM
  relative viability: 0.35
[8]; first compound 0.04 µM
  relative viability: 1.13
[8]; first compound 0.1265 µM
  relative viability: 0.986
[8]; first compound 0.4 µM
  relative viability: 1.23
[8]; first compound 1.265 µM
  relative viability: 1.1
[8]; first compound 4 µM
  relative viability: 1.05
[9]; first compound 0.04 µM
  relative viability: 0.714
[9]; first compound 0.1265 µM
  relative viability: 0.645
[9]; first compound 0.4 µM
  relative viability: 0.796
[9]; first compound 1.265 µM
  relative viability: 0.694
[9]; first compound 4 µM
  relative viability: 0.57
[10]; first compound 0.04 µM
  relative viability: 0.978
[10]; first compound 0.1265 µM
  relative viability: 0.872
[10]; first compound 0.4 µM
  relative viability: 0.967
[10]; first compound 1.265 µM
  relative viability: 0.937
[10]; first compound 4 µM
  relative viability: 0.949
[11]; first compound 0.04 µM
  relative viability: 0.946
[11]; first compound 0.1265 µM
  relative viability: 0.856
[11]; first compound 0.4 µM
  relative viability: 0.959
[11]; first compound 1.265 µM
  relative viability: 0.845
[11]; first compound 4 µM
  relative viability: 0.821
[12]; first compound 0.04 µM
  relative viability: 1.22
[12]; first compound 0.1265 µM
  relative viability: 1.21
[12]; first compound 0.4 µM
  relative viability: 1.18
[12]; first compound 1.265 µM
  relative viability: 1.06
[12]; first compound 4 µM
  relative viability: 1.04
[13]; first compound 0.04 µM
  relative viability: 0.968
[13]; first compound 0.1265 µM
  relative viability: 0.985
[13]; first compound 0.4 µM
  relative viability: 1.06
[13]; first compound 1.265 µM
  relative viability: 0.889
[13]; first compound 4 µM
  relative viability: 0.742
[14]; first compound 0.04 µM
  relative viability: 0.848
[14]; first compound 0.1265 µM
  relative viability: 0.754
[14]; first compound 0.4 µM
  relative viability: 0.961
[14]; first compound 1.265 µM
  relative viability: 0.818
[14]; first compound 4 µM
  relative viability: 0.859
[15]; first compound 0.04 µM
  relative viability: 0.667
[15]; first compound 0.1265 µM
  relative viability: 0.849
[15]; first compound 0.4 µM
  relative viability: 0.824
[15]; first compound 1.265 µM
  relative viability: 0.614
[15]; first compound 4 µM
  relative viability: 0.696
[16]; first compound 0.04 µM
  relative viability: 0.505
[16]; first compound 0.1265 µM
  relative viability: 0.49
[16]; first compound 0.4 µM
  relative viability: 0.491
[16]; first compound 1.265 µM
  relative viability: 0.622
[16]; first compound 4 µM
  relative viability: 0.564
[17]; first compound 0.04 µM
  relative viability: 1.18
[17]; first compound 0.1265 µM
  relative viability: 1.14
[17]; first compound 1.265 µM
  relative viability: 1.1
[17]; first compound 4 µM
  relative viability: 1.09
[18]; first compound 0.04 µM
  relative viability: 0.818
[18]; first compound 0.1265 µM
  relative viability: 0.677
[18]; first compound 0.4 µM
  relative viability: 0.938
[18]; first compound 1.265 µM
  relative viability: 0.73
[18]; first compound 4 µM
  relative viability: 0.827
[19]; first compound 0.04 µM
  relative viability: 1.03
[19]; first compound 0.1265 µM
  relative viability: 0.891
[19]; first compound 0.4 µM
  relative viability: 0.994
[19]; first compound 1.265 µM
  relative viability: 0.879
[19]; first compound 4 µM
  relative viability: 0.948
[20]; first compound 0.04 µM
  relative viability: 1.01
[20]; first compound 0.1265 µM
  relative viability: 0.808
[20]; first compound 0.4 µM
  relative viability: 1.14
[20]; first compound 1.265 µM
  relative viability: 0.927
[20]; first compound 4 µM
  relative viability: 0.925
[21]; first compound 0.04 µM
  relative viability: 0.851
[21]; first compound 0.1265 µM
  relative viability: 0.605
[21]; first compound 0.4 µM
  relative viability: 0.72
[21]; first compound 1.265 µM
  relative viability: 0.835
[21]; first compound 4 µM
  relative viability: 0.831
[22]; first compound 0.04 µM
  relative viability: 0.728
[22]; first compound 0.1265 µM
  relative viability: 0.708
[22]; first compound 0.4 µM
  relative viability: 0.674
[22]; first compound 1.265 µM
  relative viability: 0.718
[22]; first compound 4 µM
  relative viability: 0.726
[23]; first compound 0.04 µM
  relative viability: 0.703
[23]; first compound 0.1265 µM
  relative viability: 0.76
[23]; first compound 0.4 µM
  relative viability: 0.75
[23]; first compound 1.265 µM
  relative viability: 0.752
[23]; first compound 4 µM
  relative viability: 0.742
